Experimental data published in US20090137784A1, “Epidermal Growth Factor Receptor Polypeptides and Antibodies” (priority 2005, published 2009).
*: point of attachment. Biotin = O=C1N[C@H]2[C@H](CS[C@H]2CCCCC(=O)*)N1

Key:
Assay type in all cases: cell-based
EGFR [1] = target: T1, EGFR (Homo sapiens, UniProt P00533); experiment: Biotinylated cyclic polypeptides tested for inhibition of EGFR phosphorylation in a model HMEC cell system; conditions: biotinylated cyclic polypeptide
T1 construct: endogenous in cells; host or cells: 184A1 human mammary epithelial cells (parental HMEC); also 24H HMEC line (overexpresses HER2)
Description: We selected amino acid sequences corresponding to fragments of Domain II and Domain IV of EGFR. The sequence of each polypeptide is shown in the first column of Table 1. The polypeptides were chosen based on their positions on the crystal structures of monomeric and dimeric EGFR (Burgess et al, Mol. Cell. 12:541-552, 2003). Although Domain IV of EGFR is not resolved in the dimer crystal structure, it is believed that portions of Domain IV come into contact upon dimerization. […] We generated biotinylated cyclic polypeptides that included each sequence and tested them in a model HMEC cell system. The sequences of the biotinylated cyclic polypeptides are shown in the third column of Table 1. […] For the LYNPTTYQMD polypeptide, the different results obtained from polypeptide and polyclonal antisera inhibition could be due to differences in the quantitative details of the assays, or the polypeptide could have a lower affinity for the receptor than the polyclonal antisera does.

[2] = target: T2, heterodimerization of HER2 with EGFR (Homo sapiens, UniProt P00533); experiment: Co-immunoprecipitation of HER2 with EGFR from HMEC lysates; conditions: HMECs, antiserum 0.1 and 1 μM; FIG. 2
T2 construct: EGFR in each sample was immunoprecipitated from HMEC lysates using an anti-EGFR antibody; endogenous in cells; host or cells: HMEC (human mammary epithelial cells)
Experimental: Next, we analyzed the amount of HER2 co-immunoprecipitated with EGFR in the presence and absence of rabbit polyclonal antiserum against peptide MGENNT. HMECs were treated as before with the antiserum. EGFR in each sample was immunoprecipitated from HMEC lysates using an anti-EGFR antibody obtained from Santa Cruz Biotechnology, Inc. Immunoprecipitates were resolved by SDS-PAGE and blotted with anti-HER2 antibody (Cell Signaling). The results are depicted in FIG. 2, where N is the non-EGF stimulated negative control, P is the cells with no rabbit antisera incubation, and 0.1 and 1 are the concentrations of rabbit polyclonal antisera in μM.

EGFR [3] = target: T1, EGFR; experiment: Quantitative Western blot of EGFR tyrosine 1173 phosphorylation in HMECs treated with rabbit polyclonal antisera; conditions: for relative EGFR tyrosine 1173 phosphorylation: HMECs, 2 hours with antisera, then 25 nM EGF for 5 minutes, FIG. 1; for Polyclonal antisera inhibition (EGFR phosphorylation): rabbit polyclonal antisera, 184A1 human mammary epithelial cells
Experimental: Anti-domain II and anti-domain IV rabbit polyclonal antisera were generated against polypeptides LYNPTTYQMD (SEQ ID NO: 1) and MGENNT (SEQ ID NO:4). Briefly, rabbits were injected with one of the peptides, and the resulting antisera were collected. The rabbit sera were purified by ammonium sulfate precipitation followed by desalting. These polyclonal antisera were then used to treat human mammary epithelial cells (HMECs) and to measure the antisera's effect on EGFR tyrosine 1173 phosphorylation by quantitative Western blot analysis. HMECs were grown to 80% confluence and incubated for 2 hours in serum-free media containing various concentrations of the rabbit polyclonal antisera. The cells were then washed and incubated with 25 nM EGF for 5 minutes. The cells were lysed, and the proteins in the lysate were run on a SDS-PAGE gel and transferred onto PDVF membranes. Blots were detected using an anti-EGFR phosphotyrosine 1173 antibody and horseradish peroxidase, and band intensity was quantified using Kodak® 1D 3.5 software. The results are shown in FIG. 1 as relative EGFR tyrosine 1173 phosphorylation in the presence of varying concentrations of polyclonal antisera. The tyrosine phosphorylation in the presence of antiserum has been normalized by total EGFR intensity and tyrosine phosphorylation in the absence of antiserum.
Additional quantitative Western blot analysis was performed to examine EGFR 1173 tyrosine phosphorylation and HER21248 tyrosine phosphorylation in normal, parental HMECs, as well as a 24H HMEC line which overexpresses HER2 (Hendriks et al., Cancer Res. 63:1130-1137, 2003). Western blot analysis was described as above, and the results are depicted in FIGS. 3-6. […] P DII and P DIV are the polyclonal antisera against polypeptides LYNPTTYQMD (SEQ ID NO:1) and MGENNT (SEQ ID NO:4), respectively. For comparison, P 225 is a commercially purchased monoclonal antibody that blocks EGFR ligand binding (Sato et al., Mol. Biol. Med. 1:511-529, 1983). Negative controls are indicated by a (−). […] FIGS. 5 and 6 show relative HER2 1248 tyrosine phosphorylation in parental and 24H HMECs, respectively. The results in FIGS. 3-6 indicate that antibodies that bind to polypeptides LYNPTTYQMD (SEQ ID NO:1) and MGENNT (SEQ ID NO:4) of EGFR can reduce both EGFR and HER2 phosphorylation in normal HMECs, as well as those overexpressing HER2.

Substance	Peptide Inhibition (EGFR phosphorylation) (EGFR [1])	HER2 co-immunoprecipitated with EGFR [2]	relative EGFR tyrosine 1173 phosphorylation (EGFR [3])	Polyclonal antisera inhibition (EGFR phosphorylation) (EGFR [3])
Biotin-Aha-CMGENNTG-CONH2	Yes	less HER2 is co-immunoprecipitated with EGFR	decrease the tyrosine phosphorylation of EGFR	Yes
Biotin-GCGLYNPTTYQMDGCG-NH2 (cysteine pairing not given here)			decrease the tyrosine phosphorylation of EGFR	Yes
CAHYIDGPHC [Biotin-GCAHYIDGPHCG-CONH2]	Yes			
CRNVSRGREC [Biotin-GCRNVSRGRECG- CONH2]	Yes			
LVWKYADAG [Biotin-GCLVWKYADAGCG-CONH2]	Yes			
LYNPTTYQMD [Biotin-GCGLYNPTTYQMDGCG-CONH2]	No			
